Here are results for four compounds from article PMC11451635, “A Broad Spectrum Lasso Peptide Antibiotic Targeting the Bacterial Ribosome” (Research Square, 2024).

“Also recorded” adds a separate entry of the source.

The test system of one assay is ClpP protease. The settings on record: cited from earlier work.
For the next assay, the system named is mycobacteria. The settings on record: cited from earlier work.
The next assay has as its system E. coli ribosome. The experiment in a line: Translocation inhibition assay. Format: biochemical, Escherichia coli. The settings on record: 62.5 μM LAR or 250 μM negamycin, EF-G/GTP, primer extension.
The test system of assay [1] is T. thermophilus 70S ribosome. The experiment in a line: X-ray structure of ribosome complex. The format is binding, Thermus thermophilus. The settings on record: 70S ribosome with mRNA and tRNAs, 250 μM antibiotic.
For a further assay, the system named is bacteria. Nature of the assay: Antibiotic activity compared with LAR. Format: cell-based. The settings on record: Supplementary Fig. 11. On the procedure: MICs were determined using broth microdilution method in cation-adjusted Mueller-Hinton Broth (MHBII, BD Difco) following standard procedures unless stated otherwise. Mycobacteria susceptibility was tested in Middlebrook 7H9 medium supplemented with 10% OADC Enrichment (oleic acid, bovine albumin, dextrose, and catalase) (BD Difco). The compounds (2 to 4 μl) were mixed with diluted cultures (5–7 × 10^5 cfu/mL) in MHB (196 to 198 μL) in 96-well round-bottom plates, and 2-fold serial dilutions were made. Plates were incubated at 37°C for 18–22 h, and OD600 readings were taken on Synergy Microplate Reader (Biotek). MIC was determined to be the lowest concentration of antibiotics with no visible growth. For Mycobacterial cultures, the plates were read after two to three days. Susceptibility was also assessed in MOPS minimal medium with 0.4% glucose (M2106 Teknova) and RPMI-1640 medium. Serum effects were tested in MHB with 10% or 50% fetal bovine serum (Invitrogen) or human serum (Heat Inactivated, from human male AB plasma; Sigma-Aldrich). For anaerobic conditions, E. coli was incubated in BD GasPak™ EZ pouch systems. To adjust the pH of the media, 1M NaOH or 1N HCl was used.

In the case of lassomycin, the Target / activity entry in the assay on ClpP protease is “targets microbial ClpP protease”. Besides, the Antimycobacterial activity entry in the assay on mycobacteria was “exhibits antimycobacterial activity”.

Consider `CN(CC(=O)O)NC(=O)C[C@H](N)C[C@@H](O)CN` [negamycin, reference compound], for which the “Inhibition of ribosome translocation” value with E. coli ribosome is “interferes with the movement of mRNA/tRNA complex through the ribosome”. Consider triculamin, for which, in the assay on mycobacteria, the Antimycobacterial activity entry is reported as “antimycobacterial”.

For lariocidin B [LAR-B], the “Ribosome binding (X-ray structure)” value in assay [1] was “Both LAR variants form very similar complexes with the ribosome”. In addition, the “Antibiotic activity relative to LAR” value in the assay with bacteria is recorded as “antibiotic activity comparable to that of the main LAR product; also recorded: closely matched that of LAR”.
